From patent US5480870A, “Tumor growth-inhibiting somatostatin analogues, pharmaceutical compositions containing them and process for preparing same” (Biosignal Kutato-Fejlesztokft, priority 1991, dated 1996)

Columns and labels:
[1] = system: tyrosine kinase (HT 29 cells); assay: Assay of the tyrosine kinase activity, HT 29 cells; format: cell-based, human
Procedure: The tyrosine kinase activity was also determined according to the method of Keri et al. [Tumor Biology 9, 315 (1988)]. The activity of the analogues was characterized on the basis of their inhibitory effect in comparison to the incorporation of ^32 p isotope to untreated cells used as control (Table IV).

[2] = system: rat hypophysis (GH release); assay: Assay of the growth hormone (GH): GHRH-elicited GH release, superfusion method; format: cell-based; details: percentage of decrease (-) or increase (+) in GH amount released by GHRH
Procedure: The release or inhibition, respectively, of the release of GH were measured on rat hypophysis by using the superfusion method [Vigh et al.: Peptides 5, 241 (1984)]. As control, the GH amount was considered which was released by the GH releasing hormone (GHRH) given in the same dose as the sample. The activity of the somatostatin analogue was expressed as the percentage of decrease or increase, respectively, in the GH amount released by GHRH (Table II).

[3] = system: MCF 7: tumour cell line of human breast origin; assay: Assay of the inhibition of cell division, MCF 7; format: cell-based
Procedure: (§1) The incorporation of [^3 H]-thymidine to tumour cells of various origin and measurement of the cell count were carried out according to the method of Keri et al. [Tumor Biology 9, 315 (1988)]. The biological activity of the analogues was expressed as the percentage of inhibition of the labelled thymidine incorporation or increase in the count of untreated cells used as control (Table III).

[4] = system: HT 29: tumour cell line of human colon origin; assay: Assay of the inhibition of cell division, HT 29; format: cell-based
Procedure: as §1

| Substance | Inhibition (%) of tyrosine kinase activity ([1]; HT 29, dose 1 μg, 32P incorporation vs untreated cells) | Inhibition (%) of tyrosine kinase activity ([1]; HT 29, dose 10 μg) | Change of GH release [2] | Inhibition (%) of cell division ([3]; MCF 7, dose 20 μg) | Inhibition (%) of cell division ([4]; HT 29, dose 20 μg) | Inhibition (%) of cell division ([3]; MCF 7, dose 40 μg) | Inhibition (%) of tyrosine kinase activity ([1]; HT 29, dose 30 μg) | Inhibition (%) of cell division ([4]; HT 29, dose 10 μg) |
| --- | --- | --- | --- | --- | --- | --- | --- | --- |
| D-Phe-Cys-Tyr-D-Trp-Lys-Val-Cys-Thr-NH2 [Example 2] | 35% | 22% | -93% | 45% | 27% | – | – | – |
| D-Phe-Tyr-Tyr-Aa-Lys-Val-Phe-Trp-NH2 [Example 6] | – | – | +26% | – | – | 48% | – | – |
| Ac-Sar-Ala-Tyr-Tyr-Aa-Lys-Val-Phe-Trp-NH2 [Example 7] | – | 17% | -20% | 24% | – | – | 23% | 28% |
